In assay [1] the test system is Lec2, Lec2-JAM-A, CHO and CHO-JAM-A cells. Briefly: Infection of in vitro cultured cells by reovirus (Example 6). It counts as cell-based. As to conditions: co-administered with the virus; for effect on infectivity of T3SA+ towards Lec2-JAM-A and CHO-JAM-A: compared to T3SA+ without glycan. The method, then:
T3SA+ and T3SA− reovirus stocks are prepared and purified virions obtained as set forth in Example 1. Lec2, Lec2-JAM-A, CHO and CHO-JAM-A cells are prepared and cultured as set forth in Example 1.
The cells are infected with the reovirus at a suitable multiplicity of infection (MOI) in batch suspensions or in monolayers and infectivity is analysed by an appropriate assay, such as quantification of viral protein expression in infected cells or a plaque assay.

For assay [2], the system named is Mice. In words: Infection of mice by reovirus (Example 7). It counts as in vivo. As to conditions: co-administered with the virus.
The subject of assay [3] is JAM-A on Lec2-JAM-A cells. In words: FD-based AFM with virus-functionalized tip on living Lec2-JAM-A cells, with glycan addition. It counts as cell-based, human. As to conditions: for T3SA+ adhesion events in the high force range (400 to 500 pN) / T3SA+ binding frequency after glycan injection / T3SA+ binding frequency before glycan injection: Lec2-JAM-A cells; for T3SA+ adhesion events in the high force range (400 to 500 pN): FIG. 8; for T3SA+ binding frequency after glycan injection / T3SA+ binding frequency before glycan injection: FIG. 9; for T3SA+ binding frequency before glycan injection: baseline of the same experiment. As to the method:
Engineering and characterization of cell lines expressing JAM-A. Monolayers of CHO (ATCC, #CCL-61) and Lec2 (ATCC, #CRL-1736) cells were transduced with lentiviruses encoding a puromycin resistance gene and human JAM-A or a puromycin resistance gene alone. Transduced cells were selected for puromycin resistance by passaging twice in medium containing 20 μg ml^−1 puromycin. The concentration of puromycin used was the minimal concentration that yielded complete death of non-transduced CHO and Lec2 cells. Following selection for puromycin resistance, cells were further selected for cell surface expression of JAM-A using fluorescence-activated cell sorting (FACS). Cell-surface expression of JAM-A was detected using the monoclonal antibody, J10.4 (Liu et al. Human junction adhesion molecule regulates tight junction resealing in epithelia. J. Cell Sci. 2000, vol. 113, 2363-2374), and a fraction of cells with high JAM-A expression was collected and propagated using puromycin selection. In the ensuing Examples, cells transduced and selected for puromycin resistance alone will be referred to as CHO and Lec2 and those selected for puromycin resistance and JAM-A expression will be referred to as CHO-JAM-A and Lec2-JAM-A, respectively.
Correlative images were acquired on an AFM (Bioscope Catalyst and Bioscope Resolve, Bruker) operated in the PeakForce QNM mode (Nanoscope software v9.2) to conduct FD-based AFM and coupled to an inverted epifluorescence microscope (Zeiss Observer Z.1) as described (Newton et al. 2017, supra; Knoops et al. Specific Interactions Measured by AFM on Living Cells between Peroxiredoxin-5 and TLR4: Relevance for Mechanisms of Innate Immunity. Cell chemical biology 2018, vol. 25, 550-559, e553). A 40× oil objective (NA=0.95) was used. The AFM was equipped with a 150 μm piezoelectric scanner and a cell culture chamber allowing to control the temperature, the humidity and the CO2 concentration as described (Alsteens et al. 2017, supra). Overview images of cell surfaces (20-30 μm^2) were recorded at imaging forces of ˜500 pN using PFQNM-LC probes (Bruker) having tip lengths of 17 μm, tip radii of 65 nm, and opening angles of 15°. All fluorescence microscopy and FD-based AFM imaging experiments were conducted under cell culture conditions using the combined AFM and fluorescence microscopy chamber (FIG. 1a) at 37° C. in either Mem a, nucleosides or Ham's F12 culture medium, depending on the cell type. A gas mixture of synthetic air with 5% CO2 at 95% relative humidity using a gas humidifier membrane (PermSelect silicone) was infused at 0.1 L min^−1 into the microscopy chamber. The humidity was controlled using a humidity sensor (Sensirion). Cantilevers were first calibrated using the thermal noise method (Huffer & Bechhoefer. Calibration of atomic-force microscope tips. Review of Scientific Instruments 1993, vol. 64, 1868-1873), yielding values ranging from 0.095 to 0.135 N m^−1 for PFQNM-LC probes. The AFM tip was oscillated in a sinusoidal fashion at 0.25 kHz with a 750 nm amplitude in the PeakForce Tapping mode. The sample was scanned using a frequency of 0.125 Hz and 256 pixels per line (256 lines). AFM images and FD curves were analyzed using the Nanoscope analysis software (v1.7, Bruker), Origin, and ImageJ (v1.52e). Individual FD curves detecting unbinding events between the virus and cell surface were analyzed using the Nanoscope analysis and Origin software. The baseline of the retraction curve was corrected using a linear fit on the last 30% of the retraction curve. Using the force-time curve, the loading rate (slope) of each rupture event was determined (FIG. 1c). Optical images were analyzed using Zen Blue software (Zeiss) (Alsteens et al. 2017, Newton et al. 2017, Delguste et al. 2018a, Delguste et al. 2018b, all supra).
The live cell experiments were conducted in the same manner as described above by scanning a suitable field of cells, followed by adding 1 mM of the respective glycan to the culture medium. […]

For the compound `CC(=O)N[C@H]1[C@H](O[C@H]2[C@@H](O)[C@@H](CO)O[C@@H](O[C@H]3[C@H](O)[C@@H](O)C(O)O[C@@H]3CO)[C@@H]2O)O[C@H](CO)[C@@H](O[C@@H]2O[C@H](CO)[C@H](O)[C@H](O)[C@H]2O)[C@@H]1O` (mixture of isomers) [LNnT, lacto-N-neotetraose, reference compound], the “effect on infectivity of T3SA+ towards Lec2-JAM-A and CHO-JAM-A” value in assay [1] is reported as “does not affect infectivity”. Further, the “effect on infectivity of T3SA+ in mice” value in assay [2] is recorded as “does not affect infectivity”. Moreover, in assay [3] (1 mM glycan), the “T3SA+ adhesion events in the high force range (400 to 500 pN)” value (“T3SA+ adhesion events … (400 to 500 pN)” for short) was “no significant change” and the “T3SA+ binding frequency after glycan injection” value was 3.9%. In addition, the “T3SA+ binding frequency before glycan injection” value in assay [3] is on record as 3.8%.
Turning to sialyl-lacto-N-tetraose a [LSTa], in assay [1], the “effect on infectivity of T3SA− towards Lec2-JAM-A or CHO-JAM-A” value is reported as “do not affect infectivity”; the “effect on infectivity of T3SA+ towards Lec2-JAM-A and CHO-JAM-A” value was “significantly increase infectivity”. For the same compound, in assay [2], the “effect on infectivity of T3SA+ in mice” value is recorded as “significantly increase infectivity” and the “effect on infectivity of T3SA− in mice” value is reported as “do not affect infectivity”. Further, in assay [3] (1 mM glycan), the “T3SA+ adhesion events … (400 to 500 pN)” value is “more adhesion events in the high force range” and the “T3SA+ binding frequency after glycan injection” value was found to be 4.8%. Moreover, the “T3SA+ binding frequency before glycan injection” value in assay [3] worked out at 3.8%.
Consider `CC(=O)N[C@H]1[C@H]([C@H](O)[C@H](O)CO)OC(O)(C(=O)O)C[C@@H]1O` (stereo partly drawn) [Neu5Ac, N-acetylneuraminic acid], for which, in assay [1], the “effect on infectivity of T3SA− towards Lec2-JAM-A or CHO-JAM-A” value was “do not affect infectivity”; the “effect on infectivity of T3SA+ towards Lec2-JAM-A and CHO-JAM-A” value is reported as “significantly increase infectivity”. In addition, in assay [2], the “effect on infectivity of T3SA+ in mice” value is “significantly increase infectivity” and the “effect on infectivity of T3SA− in mice” value is “do not affect infectivity”. Also, in assay [3] (1 mM glycan), the “T3SA+ adhesion events … (400 to 500 pN)” value is “more adhesion events in the high force range” and the “T3SA+ binding frequency after glycan injection” value came out at 4.9%. The “T3SA+ binding frequency before glycan injection” value in assay [3] was determined as 3.9%. Besides, the “T3SA+ adhesion events in the high force range after neuraminidase treatment” value in assay [3] (NA-treated cells, 1 mM glycan, FIG. 17) is recorded as “more adhesion events in the high force range”. Also, the “increase in T3SA+ binding after glycan injection on neuraminidase-treated cells” value in assay [3] (neuraminidase 40 mUnit/mL for 1 h, then 1 mM glycan) was ~20%.

The values are drawn from patent US20220111034A1, “VIRUS COMPOSITIONS” (priority 2019, published 2022).
